Assay results: patent publication US6759403B2, “Metalloporphyrins and their uses as radiosensitizers for radiation therapy” (Brookhaven Science Associates, LLC, priority 2001, dated 2004)

Key:
Format in all cases: in vivo, BALB/c mice
EMT-6 mammary carcinomas [1] = assay: Boron biodistribution in mice with EMT-6 tumors of the dorsal thorax (Example 2); conditions: 186 μg CuTCPBr/g body weight total, 6 ip injections over 2 days; 4 days after last injection
Procedure: Five BALB/c mice bearing subcutaneously implanted EMT-6 mammary carcinomas on the dorsal thorax were given a total dose of 186 μg CuTCPBr/g body weight in 6 intraperitoneal (ip) injections over a period of 2 days. Four days after the last injection mice were euthanized and the average boron concentrations (μg/g wet tissue) were measured for different types of tissue.

EMT-6 leg tumors = assay: Boron biodistribution in mice with subcutaneous EMT-6 leg tumors (Example 3); conditions: for Boron Concentration, Blood / Boron Concentration, Liver / Boron concentration, Cerebrum / Boron concentration, Ears / Boron Concentration, Tumor: 156 μg CuTCPBr/gbw over 2 days; for Boron Concentration, Tumor / Tumor boron concentration normalized to the dose of the first study: leg tumor; for Tumor boron concentration normalized to the dose of the first study: normalized from 156 to 186 μg/g dose
Procedure: In this example, BALB/c mice bearing subcutaneous EMT-6 leg tumors were given 156 μg CuTCPBr/gbw in a volume of 0.01 mL/gbw/injection over a period of 2 days.
There is a larger vascular system surrounding the dorsal thorax compared with the leg, which may be a factor. However, in the case of CuTCPH, the boron concentration was 30% higher in leg tumors compared to back tumors. Normalizing to the slightly higher dose of the first study, the tumor boron concentration should be about 29 and 15 μg/g at 2d and 5d, respectively, which are still low. Studies are underway to repeat these experiments.

EMT-6 mammary carcinomas [2] = assay: Biodistribution study of CuTCPBr in mice with EMT-6 mammary carcinomas on the back (Example 5); conditions: for Boron Concentration, Tumor / Boron Concentration, Blood / Boron Concentration, Brain / Boron Concentration, Ears (skin) / Boron Concentration, Liver / Boron Concentration, Spleen / Boron Concentration, Tongue: 6 ip injections over 2 days
Procedure: Two groups of seven (7) BALB/c mice bearing EMT-6 mammary carcinomas on the back were given CuTCPBr at a dose of 432 μg/g body weight (94 μg B/gbw) in six intraperitoneal injections over two days. Two days after the last injection, the mice in one group were euthanized and the boron concentrations in various tissues were measured. Four days after the last injection, the same procedure was carried out on the second group of mice. The average boron concentrations (mean with standard deviation in parentheses) for the two groups of mice injected with CuTCPBr are listed in the second and third columns of Table 4.
The tumor to blood boron concentration ratio after two days was approximately 8:1 and after four days it increased to 232:1. The tumor to brain boron concentration ratio after two days was approximately 197:1 and after four days it increased to 225:1.

EMT-6 mammary tumors = assay: Radiosensitizer study: tumor control with 100 kVp x-irradiation (Example 8); conditions: for % tumor control: 89 days observation
Description: In this example, female BALB/c mice (Taconic Farms, Germantown, N.Y.) (20-25 g) were used in radiotherapy studies to compare tumor control effects in mice bearing EMT-6 mammary tumors. The EMT-6 leg tumors were formed by mincing freshly removed tumor tissue from mice into fragments no larger than 0.5 mm. The fragments were mixed in a saline solution and implanted subcutaneously (sc) in the legs of mice using an 18-gauge trocar. Tumor fragments were used because in this particular location tumors initiated by cell suspensions tend to spread in a thin subcutaneous layer and invade the subjacent muscle. Using tumor fragments, the tumors are palpable, but thinner on the leg than on the dorsal thorax. In late stage, fragment-initiated tumors can invade muscle tissue but not as frequently as do suspension-initiated tumors.
At approximately seven days after tumor implantation, the mice were stratified by tumor volume into six (6) matched experimental groups, which included five groups of twelve (12) mice each and a control group of thirty-three (33). Two groups were treated with ≈400 μg/g body weight CuTCPBr and given two doses of 100 kVp x-irradiation x-rays, two groups were treated with only two doses of 100 kVp x-irradiation, one group received CuTCPBr and were euthanized the day of irradiation. The function of the group which was immediately euthanized was to determine the boron concentration in tissues at the time of irradiation. It was not a control group upon which the effectiveness of treatment was compared. The control group of thirty-three mice was not treated at all.
In all treated groups, single-exposure irradiations were used. For the irradiation procedures, mice were anesthetized with sodium pentobarbital (≈60 μg/gbw i.p.). Each mouse was anesthetized and positioned behind a 1-cm thick lead shield with the tumor-bearing leg extended across a 2-cm aperture in the lead shield in a manner similar to that used in thermal beam irradiation. […]
Tumor volumes ranged from approximately 20-170 mm^3 in each of the five groups of treated mice. Tumor dimensions were measured 2-3 times per week and mice were euthanized either when calculated tumor volumes (x^2y/2, where x is the shorter surface dimension) exceeded 500 mm^3 or when skin ulceration was observed. Mice were weighed when the tumors were measured, except during the first week, when they were weighed daily. […]
Mice were euthanized at various time points due to tumor overgrowth. The effectiveness of the treatments was measured by the “% tumor control.” The % tumor control is defined as the number of mice whose tumors were “cured” divided by the total number of mice in a particular dose group. […]

[3] = CuTCPBr 432 μg/g body weight, after 2 days
[4] = CuTCPBr 432 μg/g body weight, after 4 days

copper octabromotetracarboranylphenylporphyrin [CuTCPBr]
Boron Concentration, Blood (EMT-6 mammary carcinomas [1]): 0.6 ± 0.2 μg B/g wet tissue | Boron Concentration, Brain (EMT-6 mammary carcinomas [1]): 0.5 ± 0.1 μg B/g wet tissue | Boron Concentration, Liver (EMT-6 mammary carcinomas [1]): 272 ± 93 μg B/g wet tissue | Boron Concentration, Tumor (EMT-6 mammary carcinomas [1]): 84 ± 15 μg B/g wet tissue | Boron Concentration, Blood (EMT-6 leg tumors; 2 days after last injection): 0.2 ± 0.1 µg/g | Boron Concentration, Liver (EMT-6 leg tumors; 2 days after last injection): 271 ± 40 µg/g | Boron concentration, Cerebrum (EMT-6 leg tumors; 2 days after last injection): 0 ± 0.1 µg/g | Boron concentration, Ears (EMT-6 leg tumors; 2 days after last injection): 1 ± 1 µg/g | Boron Concentration, Tumor (EMT-6 leg tumors; 2 days after last injection): 24 ± 11 µg/g | Boron Concentration, Blood (EMT-6 leg tumors; 5 days after last injection): 0.1 ± 0.1 µg/g | Boron Concentration, Liver (EMT-6 leg tumors; 5 days after last injection): 308 ± 40 µg/g | Boron concentration, Cerebrum (EMT-6 leg tumors; 5 days after last injection): 0.6 ± 1 µg/g | Boron concentration, Ears (EMT-6 leg tumors; 5 days after last injection): 0.6 ± 0.7 µg/g | Boron Concentration, Tumor (EMT-6 leg tumors; 5 days after last injection): 13 ± 6 µg/g | Tumor boron concentration normalized to the dose of the first study (EMT-6 leg tumors; 2d): about 29 μg/g | Tumor boron concentration normalized to the dose of the first study (EMT-6 leg tumors; 5d): ~15 µg/g | Boron Concentration, Tumor (EMT-6 mammary carcinomas [2]; CuTCPBr 432 μg/g body weight (94 μg B/gbw), after 2 days): 256 (51) μg/g | Boron Concentration, Blood (EMT-6 mammary carcinomas [2]; [3]): 30 (12) μg/g | Boron Concentration, Brain (EMT-6 mammary carcinomas [2]; [3]): 1.3 (0.4) μg/g | Boron Concentration, Ears (skin) (EMT-6 mammary carcinomas [2]; [3]): 16 (4.3) μg/g | Boron Concentration, Liver (EMT-6 mammary carcinomas [2]; [3]): 831 (102) μg/g | Boron Concentration, Spleen (EMT-6 mammary carcinomas [2]; [3]): 507 (60) μg/g | Boron Concentration, Tongue (EMT-6 mammary carcinomas [2]; [3]): 43 (4.1) μg/g | Boron Concentration, Blood (EMT-6 mammary carcinomas [2]; [4]): 0.8 (0.2) μg/g | Boron Concentration, Brain (EMT-6 mammary carcinomas [2]; [4]): 0.7 (0.1) μg/g | Boron Concentration, Ears (skin) (EMT-6 mammary carcinomas [2]; [4]): 12 (1.6) μg/g | Boron Concentration, Liver (EMT-6 mammary carcinomas [2]; [4]): 592 (24) μg/g | Boron Concentration, Spleen (EMT-6 mammary carcinomas [2]; [4]): 336 (40) μg/g | Boron Concentration, Tongue (EMT-6 mammary carcinomas [2]; [4]): 37 (4.0) μg/g | Boron Concentration, Tumor (EMT-6 mammary carcinomas [2]; [4]): 180 (27) μg/g | decrease of liver boron from two to four days (EMT-6 mammary carcinomas [2]; CuTCPBr 432 μg/g body weight, indicates faster clearance time): 29% | dose modification factor (EMT-6 mammary tumors; CuTCPBr in combination with x-irradiation): > 1.5 | radiosensitizing effect (EMT-6 mammary tumors; single dose x-irradiation in the presence of CuTCPBr): clear radiosensitizing effect | % tumor control (EMT-6 mammary tumors; ≈400 μg/g CuTCPBr plus single-dose 25 Gy 100 kVp x-rays, x-rays alone 25.0%): 41.7% | % tumor control (EMT-6 mammary tumors; ≈400 μg/g CuTCPBr plus single-dose 35 Gy 100 kVp x-rays, x-rays alone 33.3%): 66.7%
